Measurements from US11884750B2, “Cationic cell penetrating peptides and the use thereof” (CELLTROY CO., LTD., priority 2021, dated 2024).

Experiments:
HaCAT cells = experiment: Cell penetration efficiency in human epidermal (skin) cells, 4 μM, flow cytometry; format: cell-based; conditions: 4 μM FITC-conjugated CPP, one hour
Procedure, shortened: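 HaCAT cells […] were grown 24 h in DMEM with 10% FBS at 37 °C, then treated 1 h with 4 μM FITC-conjugated peptide or FITC-TAT. Cells were trypsinised and washed in D-PBS. Intracellular fluorescence was read by flow cytometry.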

SH-SY5Y cells = experiment: Cell penetration efficiency in human neuroblastoma cells, 4 μM, flow cytometry; format: cell-based; conditions: one hour; for cell permeability compared with TAT: 4 μM FITC-conjugated CPP, flow cytometry; for Score / Score/TAT: 4 μM FITC-conjugated peptide; for Score: intracellular fluorescence by flow cytometry; for Score/TAT: ratio to FITC-conjugated TAT
Procedure, shortened: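 SH-SY5Y cells cultured 24 h in DMEM/10% FBS at 37 °C, 5% CO2, then exposed to 4 μM FITC-conjugated peptide (FITC-TAT as reference) for 1 h. After trypsinisation and D-PBS washes, intracellular fluorescence measured by flow cytometry.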

macrophages = experiment: Cell penetration efficiency using macrophages; format: cell-based; conditions: macrophages differentiated from THP1 cells, 4 μM FITC-conjugated CPP, one hour
monocytes = experiment: Cell penetration efficiency using monocytes; format: cell-based; conditions: 4 μM FITC-conjugated CPP, one hour
Procedure, shortened: (§1)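 Cells grown 24 h at 37 °C, 5% CO2 in medium with 10% FBS, then exposed 1 h to 4 μM FITC-conjugated CPP or FITC-conjugated TAT. After trypsin detachment and two D-PBS washes, intracellular fluorescence was measured by flow cytometry.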

HGB cell line = experiment: Cell penetration efficiency in glioblastoma cells; format: cell-based, human; conditions: 4 μM FITC-conjugated CPP, one hour
Procedure, shortened: as §1

HDF cell line = experiment: Cell penetration efficiency in skin cells (HDF); format: cell-based; conditions: 4 μM FITC-conjugated CPP, one hour
Procedure, shortened: as §1

HeLa cell line = experiment: Cell penetration efficiency using cervical cancer cells; format: cell-based; conditions: 4 μM FITC-conjugated CPP, one hour
Procedure, shortened: as §1

HT1080 cell line = experiment: Cell penetration efficiency using connective tissue (fibrosarcoma) cells; format: cell-based; conditions: 4 μM FITC-conjugated CPP, one hour
Procedure, shortened: as §1

HepG2 cell line = experiment: Cell penetration efficiency using liver cells; format: cell-based; conditions: 4 μM FITC-conjugated CPP, one hour
Protocol: Subsequently, to confirm whether the CPPs according to the present invention show excellent cell permeability into different types of cells/tissues, various tissue-derived cells were treated with biologically active molecule-conjugated CPPs to compare its delivery capacity with TAT. As in the previous examples, each cell was aliquoted in a plate at an appropriate density, and cultured in a 10% FBS-added medium under a condition of 37° C. and 5% CO2 for 24 hours. Subsequently, the cells were treated with 4 μM each of FITC-conjugated CPP or FITC-conjugated TAT and incubated for one hour. After the completion of the incubation, the cells were transferred to a sterile tube using 0.25% trypsin and centrifuged to remove the medium. Afterward, the cells were washed with 500 μL of D-PBS twice to completely remove the medium, and finally, resuspended in 400 μL of D-PBS and intracellular fluorescence was measured by flow cytometry (FACSCanto II).

HEK293T cell line = experiment: Cell penetration efficiency using kidney cells; format: cell-based; conditions: 4 μM FITC-conjugated CPP, one hour
Procedure, shortened: as §1

A-427 cell line = experiment: Cell penetration efficiency using lung cells; format: cell-based; conditions: A-427 lung cells, 4 μM FITC-conjugated CPP, one hour
Procedure, shortened: as §1

SNU-46 cell line = experiment: Cell penetration efficiency using laryngeal cells; format: cell-based; conditions: SNU-46 laryngeal cells, 4 μM FITC-conjugated CPP, one hour
Procedure, shortened: as §1

Sequence | cell permeability compared with TAT (HaCAT cells) | cell permeability compared with TAT (SH-SY5Y cells) | Score (SH-SY5Y cells) | Score/TAT (SH-SY5Y cells) | cell permeability compared with TAT (macrophages) | cell permeability compared with TAT (monocytes) | cell permeability compared with TAT (HGB cell line) | cell permeability compared with TAT (HDF cell line) | cell permeability compared with TAT (HeLa cell line) | cell permeability compared with TAT (HT1080 cell line) | cell permeability compared with TAT (HepG2 cell line) | cell permeability compared with TAT (HEK293T cell line) | cell permeability compared with TAT (A-427 cell line) | cell permeability compared with TAT (SNU-46 cell line)
WPRRRLRLRHRARR [C113] | higher cell permeability | higher cell permeability | 1278 | 2.462 | higher cell permeability | higher cell permeability | higher cell permeability | higher cell permeability | higher cell permeability | higher cell permeability | higher cell permeability | higher cell permeability | higher cell permeability | higher cell permeability
AARIRALRRRRRRP [C72] | higher cell permeability | higher cell permeability | 1026 | 1.977 | higher cell permeability | higher cell permeability | higher cell permeability | higher cell permeability | higher cell permeability | higher cell permeability | higher cell permeability | higher cell permeability | higher cell permeability | higher cell permeability
LVPRRLRRRARRRK [C179] | higher cell permeability | higher cell permeability | 2076 | 4.000 | higher cell permeability | higher cell permeability | higher cell permeability | higher cell permeability | higher cell permeability | higher cell permeability | higher cell permeability | higher cell permeability | higher cell permeability | higher cell permeability
